Molecular target: T1, BTK (Homo sapiens, UniProt Q06187)
T1 construct: The GM01501.3 cell line endogenously expresses BTK with a HiBiT fusion tag via CRISPR knock-in at its C-terminal region; endogenous in cells; host or cells: GM01501.3 (GM01501 cells engineered by CRISPR knock-in of HiBiT at the BTK locus)
Experiment: BTK degradation assay using the HiBiT Method (Nano-Glo HiBiT Lytic Assay, GM01501.3 cells)
Type: cell-based
Conditions: HiBiT Degradation on GM01501.3 BTK @ 6 hours
Method: Selected compounds were tested in a BTK degradation assay using the HiBiT Method. Park Memorial Institute (RPM1) 1640 Medium with phenol red, L-Glutamine, Sodium Pyruvate, and fetal bovine serum (FBS) were purchased from Gibco (Grand Island, NY, USA). Nano-Glo® HiBiT Lytic Assay System was purchased from Promega (Madison, WI, USA). GM01501 cells were obtained from the NIGMS Human Genetic Cell Repository at the Coriell Institute for Medical Research. The GM01501.3 cell line endogenously expresses BTK with a HiBiT fusion tag via CRISPR knock-in at its C-terminal region. It was engineered by electroporation with the Neon Transfection System (Themo Fisher Scientific), according to manufacturer indications. Electroporation conditions: 1 pulse of 1,350 V for 30 ms for 0.5×10_6 cells. Cell culture flasks and 384-well microplates were acquired from VWR (Radnor, PA, USA). BTK degradation was evaluated by quantification of luminescent signal using Nano-Glo® HiBiT Lytic Assay kit. Test compounds were added to the 384-well plate from a top concentration of 10 μM with 11 points, half log titration in duplicates. GM01501.3 cells were added into 384-well plates at a cell density of 10,000 cells per well in a total volume of 30 μl. The plates were kept at 37° C. with 5% CO2 for 6 hours. Negative control wells included cells treated with DMSO only and positive control wells included only growing media, without Nano-Glo® HiBiT Lytic reagent. After a 6-hour incubation, Nano-Glo® HiBiT Lytic Assay reagent was added to the cells following manufacturer indications. Luminescence was acquired on EnVision™ Multilabel Reader (PerkinElmer, Santa Clara, CA, USA). […] “++++” represents a DC50 value of less than 100 nM. “+++” represents a DC50 value of 100 nM-500 nM. “++” represents a DC50 value of 500 nM-1000 nM. “+” represents a DC50 value of greater than 1000 nM.

T1 sequence (Q06187 whole entry, the tested form may be a part): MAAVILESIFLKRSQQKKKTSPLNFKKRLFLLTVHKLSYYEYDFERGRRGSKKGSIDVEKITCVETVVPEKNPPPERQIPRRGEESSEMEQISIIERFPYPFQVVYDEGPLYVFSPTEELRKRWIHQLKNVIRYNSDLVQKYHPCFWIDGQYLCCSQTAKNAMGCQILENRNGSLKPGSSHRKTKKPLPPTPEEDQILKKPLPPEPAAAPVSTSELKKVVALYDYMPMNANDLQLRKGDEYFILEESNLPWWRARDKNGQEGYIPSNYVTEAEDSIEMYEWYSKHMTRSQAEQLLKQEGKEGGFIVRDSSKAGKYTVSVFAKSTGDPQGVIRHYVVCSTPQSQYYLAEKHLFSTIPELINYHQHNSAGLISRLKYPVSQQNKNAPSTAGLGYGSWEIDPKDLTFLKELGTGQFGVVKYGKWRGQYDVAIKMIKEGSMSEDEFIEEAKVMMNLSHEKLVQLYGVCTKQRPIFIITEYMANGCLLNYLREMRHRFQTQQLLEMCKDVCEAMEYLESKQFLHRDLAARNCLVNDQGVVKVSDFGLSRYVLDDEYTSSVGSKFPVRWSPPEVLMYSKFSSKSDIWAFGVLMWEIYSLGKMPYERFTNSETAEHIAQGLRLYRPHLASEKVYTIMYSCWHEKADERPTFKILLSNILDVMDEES

DC50, < 100 nM:
Cc1cc(-c2ncnn3cc(-c4ccc(CN5CCC(c6ncc(NC7CCC(=O)NC7=O)cn6)CC5)cc4)cc23)ccc1CNC(=O)c1noc(C(C)(C)C)n1 (stereo not drawn) [Example 14, 5-tert-butyl-N-[[4-[6-[4-[[4-[5-[(2,6-dioxo-3-piperidyl)amino]pyrimidin-2-yl]-1-piperidyl]methyl]phenyl]pyrrolo [2,1-f][1,2,4]triazin-4-yl]-2-methyl-phenyl]methyl]-1,2,4-oxadiazole-3-carboxamide]
Cc1cc(-c2ncnn3cc(-c4ccc(CN5CCC(c6ccc(NC7CCC(=O)NC7=O)cc6)CC5)c(Cl)c4)cc23)ccc1CNC(=O)c1noc(C(C)(C)C)n1 (stereo not drawn) [Example 15, 5-tert-butyl-N-[[4-[6-[3-chloro-4-[[4-[4-[(2,6-dioxo-3-piperidyl)amino]phenyl]-1-piperidyl]methyl]phenyl]pyrrolo[2,1-f][1,2,4]triazin-4-yl]-2-methyl-phenyl]methyl]-1,2,4-oxadiazole-3-carboxamide]
COc1cc(-c2cc3c(-c4ccc(CNC(=O)c5noc(C(C)(C)C)n5)c(C)c4)ncnn3c2)ccc1CN1CCC(c2ccc(NC3CCC(=O)NC3=O)cc2)CC1 (stereo not drawn) [Example 16, 5-tert-butyl-N-[[4-[6-[4-[[4-[4-[(2,6-dioxo-3-piperidyl)amino]phenyl]-1-piperidyl]methyl]-3-methoxy-phenyl]pyrrolo[2,1-f][1,2,4]triazin-4-yl]-2-methyl-phenyl]methyl]-1,2,4-oxadiazole-3-carboxamide]
Cc1cc(-c2ncnn3cc(-c4ccc(CN5CCC(c6ccc(NC7CCC(=O)NC7=O)cc6)CC5)cc4C)cc23)ccc1CNC(=O)c1noc(C(C)(C)C)n1 (stereo not drawn) [Example 17, 5-tert-butyl-N-[[4-[6-[4-[[4-[4-[(2,6-dioxo-3-piperidyl)amino]phenyl]-1-piperidyl]methyl]-2-methyl-phenyl]pyrrolo[2,1-f][1,2,4]triazin-4-yl]-2-methyl-phenyl]methyl]-1,2,4-oxadiazole-3-carboxamide]
Cc1cc(-c2ncnn3cc(-c4ccc(CN5CCC(c6ccc(NC7CCC(=O)NC7=O)c(F)c6)CC5)cc4)cc23)ccc1CNC(=O)c1noc(C(C)(C)C)n1 (stereo not drawn) [Example 18, 5-tert-butyl-N-[[4-[6-[4-[[4-[4-[(2,6-dioxo-3-piperidyl)amino]-3-fluoro-phenyl]-1-piperidyl]methyl]phenyl]pyrrolo [2,1-f][1,2,4]triazin-4-yl]-2-methyl-phenyl]methyl]-1,2,4-oxadiazole-3-carboxamide]
Cc1cc(-c2ncnn3cc(-c4ccc(CN5CCC(c6ccc(OC7CCC(=O)NC7=O)cc6)CC5)cc4)cc23)ccc1CNC(=O)c1noc(C(C)(C)C)n1 (stereo not drawn) [Example 19, 5-tert-butyl-N-[[4-[6-[4-[[4-[4-[(2,6-dioxo-3-piperidyl)oxy]phenyl]-1-piperidyl]methyl]phenyl]pyrrolo[2,1-f][1,2,4]triazin-4-yl]-2-methyl-phenyl]methyl]-1,2,4-oxadiazole-3-carboxamide]
Cc1cc(-c2ncnn3cc(-c4ccc(CN5CCC(c6ccc(NC7CCC(=O)NC7=O)cn6)CC5)cc4)cc23)ccc1CNC(=O)c1noc(C(C)(C)C)n1 (stereo not drawn) [Example 20, 5-tert-butyl-N-[[4-[6-[4-[[4-[5-[(2,6-dioxo-3-piperidyl)amino]-2-pyridyl]-1-piperidyl]methyl]phenyl]pyrrolo[2,1-f][1,2,4]triazin-4-yl]-2-methyl-phenyl]methyl]-1,2,4-oxadiazole-3-carboxamide]
COc1cc(CN2CCC(c3ccc(NC4CCC(=O)NC4=O)cc3)CC2)ccc1-c1cc2c(-c3ccc(CNC(=O)c4noc(C(C)(C)C)n4)c(C)c3)ncnn2c1 (stereo not drawn) [Example 21, 5-tert-butyl-N-[[4-[6-[4-[[4-[4-[(2,6-dioxo-3-piperidyl)amino]phenyl]-1-piperidyl]methyl]-2-methoxy-phenyl]pyrrolo[2,1-f][1,2,4]triazin-4-yl]-2-methyl-phenyl]methyl]-1,2,4-oxadiazole-3-carboxamide]
COc1cc(CN2CCC(c3ccc(C4CCC(=O)NC4=O)cc3)CC2)ccc1-c1cc2c(-c3ccc(CNC(=O)c4noc(C(C)(C)C)n4)c(C)c3)ncnn2c1 (stereo not drawn) [Example 22, 5-tert-butyl-N-[[4-[6-[4-[[4-[4-(2,6-dioxo-3-piperidyl)phenyl]-1-piperidyl]methyl]-2-methoxy-phenyl]pyrrolo[2,1-f][1,2,4]triazin-4-yl]-2-methyl-phenyl]methyl]-1,2,4-oxadiazole-3-carboxamide]
Cc1cc(-c2ncnn3cc(-c4ccc(CN5CCC(c6ccc(NC7CCC(=O)NC7=O)cc6)CC5)c(F)c4)cc23)ccc1CNC(=O)c1noc(C(C)(C)C)n1 (stereo not drawn) [Example 23, 5-tert-butyl-N-[[4-[6-[4-[[4-[4-[(2,6-dioxo-3-piperidyl)amino]phenyl]-1-piperidyl]methyl]-3-fluoro-phenyl]pyrrolo[2,1-f][1,2,4]triazin-4-yl]-2-methyl-phenyl]methyl]-1,2,4-oxadiazole-3-carboxamide]
Cc1cc(-c2ncnn3cc(-c4ccc(CN5CCC(c6ccc(NC7CCC(=O)NC7=O)cc6Cl)CC5)cc4)cc23)ccc1CNC(=O)c1noc(C(C)(C)C)n1 (stereo not drawn) [Example 24, 5-tert-butyl-N-[[4-[6-[4-[[4-[2-chloro-4-[(2,6-dioxo-3-piperidyl)amino]phenyl]-1-piperidyl]methyl]phenyl]pyrrolo[2,1-f][1,2,4]triazin-4-yl]-2-methyl-phenyl]methyl]-1,2,4-oxadiazole-3-carboxamide]
Cc1cc(-c2ncnn3cc(-c4ccc(CN5CCC(c6ccc(N[C@H]7CCC(=O)NC7=O)cc6F)CC5)cc4)cc23)ccc1CNC(=O)c1noc(C(C)(C)C)n1 [Example 25, (S)-5-(tert-butyl)-N-(4-(6-(4-((4-(4-((2,6-dioxopiperidin-3-yl)amino)-2-fluorophenyl)piperidin-1-yl)methyl)phenyl)pyrrolo[2,1-f][1,2,4]triazin-4-yl)-2-methylbenzyl)-1,2,4-oxadiazole-3-carboxamide]
Cc1cc(-c2ncnn3cc(-c4ccc(CN5CCC(c6ccc(N[C@@H]7CCC(=O)NC7=O)cc6F)CC5)cc4)cc23)ccc1CNC(=O)c1noc(C(C)(C)C)n1 [Example 26, (R)-5-(tert-butyl)-N-(4-(6-(4-((4-(4-((2,6-dioxopiperidin-3-yl)amino)-2-fluorophenyl)piperidin-1-yl)methyl)phenyl)pyrrolo[2,1-f] [1,2,4]triazin-4-yl)-2-methylbenzyl)-1,2,4-oxadiazole-3-carboxamide]
Cc1cc(-c2ncnn3cc(-c4ccc(CN5CCC(c6ccc(NC7CCC(=O)NC7=O)cc6C(F)(F)F)CC5)cc4)cc23)ccc1CNC(=O)c1noc(C(C)(C)C)n1 (stereo not drawn) [Example 27, 5-tert-butyl-N-[[4-[6-[4-[[4-[4-[(2,6-dioxo-3-piperidyl)amino]-2-(trifluoromethyl)phenyl]-1-piperidyl]methyl]phenyl]pyrrolo[2,1-f][1,2,4]triazin-4-yl]-2-methyl-phenyl]methyl]-1,2,4-oxadiazole-3-carboxamide]
Cc1cc(-c2ncnn3cc(-c4ccc(CN5CCC(c6ccc7c(N8CCC(=O)NC8=O)nn(C)c7c6)CC5)cc4)cc23)ccc1CNC(=O)c1noc(C(C)(C)C)n1 [Example 28, 5-tert-butyl-N-[[4-[6-[4-[[4-[3-(2,4-dioxohexahydropyrimidin-1-yl)-1-methyl-indazol-6-yl]-1-piperidyl]methyl]phenyl]pyrrolo[2,1-f][1,2,4]triazin-4-yl]-2-methyl-phenyl]methyl]-1,2,4-oxadiazole-3-carboxamide]

Source: US20240287076A1, “COMPOUNDS FOR TARGETING DEGRADATION OF BRUTON'S TYROSINE KINASE” (BIOGEN MA INC., priority 2021, published 2024)
